Here are results for 23 molecules from patent publication US20030108484A1, “Individualization of therapy with antineoplastic agents” (McGill University, priority 2001, published 2003).

Where two headings read alike, the source gives them in different places. Marks after values point to notes of the source that are not given here.

In one data set the test system is 1X-Ab. The data set can be described thus: Competitive antigen ELISA, cross-reactivity of 1X-Ab. It counts as binding, rabbit. The following applies: for % Cross-Reaction 1X-Ab: competitive antigen ELISA, 0 = absence of inhibition or inhibition no higher than 40% at highest concentration tested (5×10^−3 M). How it is done:
(§1) Buffers and water without additives are filtered through millipore filters and kept for 1 week. BSA, antibodies, Tween™ 20 and horse radish peroxidase conjugates are added to these buffers and water just prior to use. Urine samples are usually collected 4 hours after drinking a cup of coffee (instant or brewed with approximately 100 mg of caffeine per cup) and stored at −80° C. The urine samples are diluted 10 times with sodium phosphate buffer (620 mosm, pH 7.50) and are subsequently diluted with water to give concentrations of AAMU and 1X no higher than 3×10^−6 M in the ELISA. All the pipettings are done with an eight-channel pipette, except those of the antibody and sample solutions. Starting with the last well, 100 μL of a carbonate buffer (100 mM, pH 9.6) containing 2.5 μg mL^−1 antibodies are added to each well. After 90 min. at room temperature, the wells are washed three times with […] of TPB: isotonic sodium phosphate buffer (310 mosm, pH 7.50) containing 0.05% Tween™ 20.
(§2) After the initial wash, unoccupied sites are blocked by incubation for 90 min. at room temperature with 100 μL TBP containing 3% BSA. The wells are washed four times with 100 μL TPB. […] The microplate is gently shaken with an orbital shaker at room temperature for 3-4 hours. The wells are washed three times with 100 μL TPB containing 1% BSA and three times with water containing 0.05% Tween™ 20. To the washed plate is added 150 μL of a substrate buffer composed of citric acid (25 mM) and sodium phosphate dibasic buffer (50 mM, pH 5.0) containing 0.06% hydrogen peroxide and 0.04% o-phenylenediamine hydrochloride.
(§3) Buffers and water without additives were filtered through millipore filters and kept for 1 week. BSA, antibodies, Tween™ 20 and horse radish peroxidase conjugates were added to these buffers and water just prior to use. Urine samples were usually collected 4 hours after drinking a cup of coffee (instant or brewed with approximately 100 mg of caffeine per cup) and stored at −80° C. They were diluted 10 times with sodium phosphate buffer (620 mosm, pH 7.50) and were subsequently diluted with water to give concentrations of AAMU and 1X no higher than 3×10^−6 M in the ELISA. All the pipettings were done with an eight-channel pipette, except those of the antibody and sample solutions. Starting with the last well, 100 μL of a carbonate buffer (100 mM, pH 9.6) containing 2.5 μg mL^−1 antibodies was pipetted. After 90 min. at room temperature, the wells were washed three times with 100 μL of TPB: isotonic sodium phosphate buffer (310 mosm, pH 7.50) containing 0.05% TweenTm 20.
(§4) After the initial wash, unoccupied sites were blocked by incubation for 90 min. at room temperature with […] TBP containing 3% BSA. The wells were washed four times with 100 μL TPB. […] The microplate was gently shaken with an orbital shaker at room temperature for 3-4 hours. The wells were washed three times with 100 μL with TPB containing 1% BSA and three times with water containing 0.05% Tween™ 20. To the washed plate was added 150 μL of a substrate buffer composed of citric acid (25 mM) and sodium phosphate dibasic buffer (50 mM, pH 5.0) containing 0.06% hydrogen peroxide and 0.04% o-phenylenediamine hydrochloride. After 20 min. at room temperature with shaking, the reaction was stopped with 50 μL of 2.5 N HCl.
(§5) The cross reactivities of AAMU-Ab and 1X-Ab were tested using a wide variety of caffeine metabolites and structural analogs (Table 2 below).

The next data set has as its system AAMU-Ab. Put plainly: Competitive antigen ELISA, cross-reactivity of AAMU-Ab. Format: binding, rabbit. The following applies: for % Cross-Reaction AAMU-Ab: competitive antigen ELISA, 0 = absence of inhibition or inhibition no higher than 40% at highest concentration tested (5×10^−3 M). The protocol: as §1, §2, §3, §4, §5
For orientation: ELISA stands for enzyme-linked immunosorbent assay.

For data set [1] the following is noted: cited from earlier work.
For data set [2] the following is noted: p<0.05, cited from earlier work.
The next data set concerns breast cancer. The note with it: first-line chemotherapy; cited from earlier work.
For data set [3] the following is noted: individuals receiving 550 mg/m^2; cited from earlier work.
For data set [4], the system named is estrogen receptor-positive breast cancer and bone metastases. The note with it: cited from earlier work.

For the molecule `Cn1c(=O)[nH]c(=O)c2[nH]cnc21` [3-Methyl Xanthine], the “% Cross-Reaction 1X-Ab” value with 1X-Ab came to 0%. The “% Cross-Reaction AAMU-Ab” value in the data set on AAMU-Ab was found to be 0%.
As to `O=c1cc[nH]c(=O)[nH]1` [Uracil], the “% Cross-Reaction 1X-Ab” value in the data set with 1X-Ab is 0%. In addition, the “% Cross-Reaction AAMU-Ab” value in the data set with AAMU-Ab was found to be 0%.
`Cc1nc2[nH]c(=O)[nH]c(=O)c2[nH]1` [8-Methyl Xanthine]: the “% Cross-Reaction 1X-Ab” value in the data set on 1X-Ab is on record as 0%. For the same molecule, the “% Cross-Reaction AAMU-Ab” value in the data set with AAMU-Ab is 0%.
For `Cn1c(=O)[nH]c2[nH]c(=O)[nH]c2c1=O` [1-Methyluric acid], the “% Cross-Reaction 1X-Ab” value in the data set on 1X-Ab came to 11%. Also, the “% Cross-Reaction AAMU-Ab” value in the data set with AAMU-Ab is 0%.
For `Cn1c(=O)[nH]c2[nH]c(=O)n(C)c2c1=O` [1,7-Dimethyluric acid], the “% Cross-Reaction 1X-Ab” value with 1X-Ab worked out at 0%. The “% Cross-Reaction AAMU-Ab” value with AAMU-Ab was determined as 0%.
On to `Nc1ccc(S(=O)(=O)c2ccc(N)cc2)cc1` [dapsone], for which the adverse reactions in data set [1] (fast acetylators) is reported as 17%; in data set [1] (slow acetylators) it was 46%.
Consider `O=c1[nH]cnc2nc[nH]c12` [Hypoxanthine], for which the “% Cross-Reaction 1X-Ab” value in the data set on 1X-Ab came out at 0%. In addition, the “% Cross-Reaction AAMU-Ab” value with AAMU-Ab was 0%.
As to `Cn1c(=O)c2c(ncn2C)n(C)c1=O` [1,3,7-Trimethyl Xanthine (Caffeine), 1,3,7-Trimethyl Xanthine], in the data set on 1X-Ab, the “% Cross-Reaction 1X-Ab” value was 0%. In the data set with AAMU-Ab, the “% Cross-Reaction AAMU-Ab” value is reported as 0%.
For `Nc1nc2nc[nH]c2c(=O)[nH]1` [Guanine], the “% Cross-Reaction 1X-Ab” value in the data set with 1X-Ab was determined as 0%. Further, the “% Cross-Reaction AAMU-Ab” value with AAMU-Ab was 0%.
For the molecule `O=c1[nH]c(=O)c2[nH]c(=O)[nH]c2[nH]1` [Uric acid], the “% Cross-Reaction 1X-Ab” value in the data set on 1X-Ab is reported as 0%. For the same molecule, the “% Cross-Reaction AAMU-Ab” value in the data set with AAMU-Ab is listed as 0%.
For `Cn1c(=O)c2[nH]cnc2n(C)c1=O` [1,3-Dimethyl Xanthine (Theophylline), 1,3-Dimethyl Xanthine], the “% Cross-Reaction 1X-Ab” value in the data set with 1X-Ab was 0.2%. For the same molecule, the “% Cross-Reaction AAMU-Ab” value in the data set on AAMU-Ab came to 0%.
For `Cn1c(=O)[nH]c2ncn(C)c2c1=O` [1,7-Dimethyl Xanthine (Paraxanthine), 1,7-Dimethyl Xanthine] the same measures were 0.5% and 0%.
As to `COc1ccc2c(c1)[C@]13CCCC[C@@H]1[C@H](C2)N(C)CC3` [Dextromethorphan], the “mean performance +/-SE” value in data set [2] (extensive metabolizers (EMs)) was 95+/−0.5%; in data set [2] (poor metabolizers (PMs)), 86+/−6%.
Regarding `CC(=O)O[C@@]12CO[C@@H]1C[C@H](O)[C@@]1(C)C(=O)[C@H](O)C3=C(C)[C@@H](OC(=O)[C@H](O)[C@@H](NC(=O)OC(C)(C)C)c4ccccc4)C[C@@](O)([C@@H](OC(=O)c4ccccc4)[C@H]21)C3(C)C` [Docetaxel], the “front-line response rate in breast cancer” value with breast cancer is listed as “up to 73%”.
In the case of `COc1cccc2c1C(=O)c1c(O)c3c(c(O)c1C2=O)C[C@@](O)(C(=O)CO)C[C@@H]3O[C@H]1C[C@H](N)[C@H](O)[C@H](C)O1` [doxorubicin], the “front-line response rate in breast cancer” value with breast cancer is recorded as 53%. Further, the “incidence of cardiomyopathy (congestive heart failure and dysrhythmias)” value in data set [3] is “approximately 2%”.
With `CC/C(=C(\c1ccccc1)c1ccc(OCCN(C)C)cc1)c1ccccc1` [tamoxifen], in data set [4] (after 7-14 days of treatment, women with estrogen receptor-positive breast cancer and bone metastases), the “occurrence of hormone flare (increasing bone pain, erythema, hypercalcemia)” value is given as “approximately 5%”. The “individuals with hormone flare who respond to tamoxifen” value in data set [4] (individuals with hormone flare) is 75%.
Consider `Cn1cnc2[nH]c(=O)[nH]c(=O)c21` [7-Methyl Xanthine], for which, in the data set on 1X-Ab, the “% Cross-Reaction 1X-Ab” value was found to be 0%. Moreover, the “% Cross-Reaction AAMU-Ab” value in the data set with AAMU-Ab is given as 0%.
Consider `CC(=O)Nc1c(N)n(C)c(=O)n(C)c1=O` [5-Acetamino-6-amino-1,3-dimethyluracil], for which, in the data set with 1X-Ab, the “% Cross-Reaction 1X-Ab” value was found to be 0%. For the same molecule, the “% Cross-Reaction AAMU-Ab” value with AAMU-Ab worked out at 0%.
As for `CC(=O)Nc1c(N)[nH]c(=O)[nH]c1=O` [5-Acetamino-6-amino-uracil], the “% Cross-Reaction 1X-Ab” value in the data set on 1X-Ab was 0%. In addition, the “% Cross-Reaction AAMU-Ab” value in the data set on AAMU-Ab was 0.6%.
On to `Cn1cnc2c1c(=O)[nH]c(=O)n2C` [3,7-Dimethyl Xanthine (Theobromine), 3,7-Dimethyl Xanthine], for which the “% Cross-Reaction 1X-Ab” value with 1X-Ab was determined as 0%. The “% Cross-Reaction AAMU-Ab” value with AAMU-Ab worked out at 0%.
Turning to `O=c1[nH]c(=O)c2[nH]cnc2[nH]1` [Xanthine], in the data set on 1X-Ab, the “% Cross-Reaction 1X-Ab” value was 0%. For the same molecule, in the data set with AAMU-Ab, the “% Cross-Reaction AAMU-Ab” value was 0^a %.
`CC(=O)Nc1c(N)n(C)c(=O)[nH]c1=O` [5-Acetamino-6-amino-1-methyluracil]: the “% Cross-Reaction 1X-Ab” value in the data set on 1X-Ab is reported as 0%. The “% Cross-Reaction AAMU-Ab” value in the data set on AAMU-Ab came out at 100%. Moreover, the IC50 in the data set with AAMU-Ab (read-out: concentration required for 50% inhibition in the competitive antigen ELISA, AAMU-Ab) came to 1.5 µM.
On to `Cn1c(=O)[nH]c2nc[nH]c2c1=O` [1-Methyl Xanthine (1X), 1-Methyl Xanthine], for which the “% Cross-Reaction 1X-Ab” value in the data set with 1X-Ab turned out to be 100%. In the data set with 1X-Ab (read-out: concentration required for 50% inhibition in the competitive antigen ELISA, 1X-Ab), the IC50 is 10 µM. The “% Cross-Reaction AAMU-Ab” value in the data set with AAMU-Ab is on record as 0%.
